Earlier results on one compound are cited in article PMC8711562 (Drug Design, Development and Therapy, 2021).

The structures appear in SMILES notation.

The data set relates to gastric pH. Conditions: beagles.

Regarding `COc1ccc2[nH]c([S+]([O-])Cc3ncc(C)c(OC)c3C)nc2c1` (stereo not shown) [Omeprazole], the “gastric pH elevated to” value is listed as 6.
